Reference: patent US8445501B2, “Substituted 7-carboxamido-pyrrolo[3,2-d]pyrimidines” (Takeda GmbH, priority 2008, dated 2013)

These compounds were tested against T1, human PDE5 (Homo sapiens, UniProt O76074) (assay: Inhibition of the type 5 phosphodiesterase (PDE5) activity, modified SPA test with platelet lysate). Settings: PDE5 from human platelet lysate, 0.5 μM cGMP.
T1 construct: from tissue; host or cells: platelets from fresh blood of human donors (lysate, 10,000 g supernatant)
Type: biochemical
Protocol: Method for Measuring Inhibition of the Type 5 Phosphodiesterase (PDE5) Activity:
As a source for human PDE5, platelets are used. For that purpose, 150 ml fresh blood from human donors anticoagulated with citrate [final concentration 0.3% (w/v)] is centrifuged at 200 g for 10 min to obtain the so-called platelet-rich-plasma (PRP) as a supernatant. 1/10 volume of ACD solution (85 mM Na3-citrate, 111 mM D-glucose, 71 mM citric acid, pH 4.4) is added to 9/10 volume of PRP. After centrifugation (1,400 g, 10 min) the cell pellet is resuspended in 3 ml homogenization buffer (NaCl 140 mM, KCl 3.8 mM, EGTA (ethylene glycol tetraacetic acid) 1 mM, MgCl2 1 mM, Tris-HCl 20 mM, beta-mercaptoethanol 1 mM, pH 8.2) plus protease-inhibitor mix giving rise to the final concentrations of 0.5 mM Pefablock (Roche), 10 μM Leupeptin, 5 μM Trypsininhibitor, 2 mM Benzamidin and 10 μM Pepstatin A. The suspension is sonified and thereafter centrifuged for 15 min at 10,000 g. The resulting supernatant (platelet lysate) is used for enzymatic testings.
PDE5A1 activity is inhibited by the compounds of the invention in a modified SPA (scintillation proximity assay) test, supplied by Amersham Biosciences (see procedural instructions “phosphodiesterase [3H]cAMP SPA enzyme assay, code TRKQ 7090”), carried out in 96-well microtitre plates (MTP's). The test volume is 100 μl and contains 20 mM Tris buffer (pH 7.4), 0.1 mg of BSA (bovine serum albumin)/ml, 5 mM Mg^2+, 1 μM motapizone, 10 nM PDE2 inhibitor 2-(3,4-dimethoxybenzyl)-7-[(1R,2R)-2-hydroxy-1-(2-phenylethyl)propyl]-5-methylimidazo[5,1-f][1,2,4]triazin-4(3H)-one, 0.5 μM cGMP (cyclic guanosine monophosphate) (including about 50,000 cpm of [3H]cGMP as a tracer), 1 μl of the respective compound dilution in dimethylsulfoxide (DMSO) and sufficient PDE5-containing platelet lysat (10,000×g supernatant, see above) to ensure that 10-20 wt % of the cGMP is converted under the said experimental conditions. […] After a preincubation of 5 min at 37° C., the reaction is started by adding the substrate (cGMP) and the assay is incubated for a further 15 min; after that, it is stopped by adding SPA beads (50 μl). In accordance with the manufacturer's instructions, the SPA beads had previously been resuspended in water, but are then diluted 1:3 (v/v) in water; the diluted solution also contains 3 mM […] (IBMX) to ensure a complete PDE activity stop. After the beads have been sedimented (>30 min), the MTP's are analyzed in commercially available luminescence detection de-vices. The corresponding IC50 values of the compounds for the inhibition of PDE activity are deter-mined from the concentration-effect curves by means of non-linear regression.

| Compound | IC50 [nM] |
| --- | --- |
| COCC(=O)N1CCC[C@H](NC(=O)c2c[nH]c3c(-c4c(OCC5CC5)ccc5c4OCO5)ncnc23)C1 [Example 45, 4-(5-Cyclopropylmethoxy-benzo[1,3]dioxol-4-yl)-5H-pyrrolo[3,2-d]pyrimidine-7-carboxylic acid [(S)-1-(2-methoxy-ethanoyl)-piperidin-3-yl]amide] | 1.55 |
| CC(=O)N1CCC[C@H](NC(=O)c2c[nH]c3c(-c4c(OCC5CC5)ccc5c4OCO5)ncnc23)C1 [Example 46, 4-(5-Cyclopropylmethoxy-benzo[1,3]dioxol-4-yl)-5H-pyrrolo[3,2-d]pyrimidine-7-carboxylic acid ((S)-1-acetyl-piperidin-3-yl)-amide] | 1.38 |
| COCC(=O)N1CCC[C@@H](NC(=O)c2c[nH]c3c(-c4c(OCC5CC5)ccc5c4OCO5)ncnc23)C1 [Example 48, 4-(5-Cyclopropylmethoxy-benzo[1,3]dioxol-4-yl)-5H-pyrrolo[3,2-d]pyrimidine-7-carboxylic acid [(R)-1-(2-methoxy-ethanoyl)-piperidin-3-yl]amide] | 0.427 |
| CC(=O)N1CCC[C@@H](NC(=O)c2c[nH]c3c(-c4c(OCC5CC5)ccc5c4OCO5)ncnc23)C1 [Example 49, 4-(5-Cyclopropylmethoxy-benzo[1,3]dioxol-4-yl)-5H-pyrrolo[3,2-d]pyrimidine-7-carboxylic acid ((R)-1-acetyl-piperidin-3-yl)-amide] | 0.339 |
| COCC(=O)N[C@H]1CC[C@H](NC(=O)c2c[nH]c3c(-c4c(OCC5CC5)ccc5c4OCO5)ncnc23)CC1 [Example 50, trans-4-(5-Cyclopropylmethoxy-benzo[1,3]dioxol-4-yl)-5H-pyrrolo[3,2-d]pyrimidine-7-carboxylic acid [4-(2-methoxy-acetylamino)-cyclohexyl]-amide] | 0.141 |
| COc1ccc(-c2ncnc3c(C(=O)N[C@H]4CC[C@H](NC(C)=O)CC4)c[nH]c23)c(OCC2CC2)c1 [Example 51, trans-4-(2-Cyclopropylmethoxy-4-methoxy-phenyl)-5H-pyrrolo[3,2-d]pyrimidine-7-carboxylic acid (4-acetylamino-cyclohexyl)-amide] | 0.49 |
| COc1ccc(-c2ncnc3c(C(=O)N[C@H]4CC[C@H](NC(=O)C5CC5)CC4)c[nH]c23)c(OCC2CC2)c1 [Example 52, trans-4-(2-Cyclopropylmethoxy-4-methoxy-phenyl)-5H-pyrrolo[3,2-d]pyrimidine-7-carboxylic acid [4-(cyclopropanecarbonyl-amino)cyclohexyl]-amide] | 0.302 |
| COCC(=O)N[C@H]1CC[C@H](NC(=O)c2c[nH]c3c(-c4ccc(OC)cc4OCC4CC4)ncnc23)CC1 [Example 53, trans-4-(2-Cyclopropylmethoxy-4-methoxy-phenyl)-5H-pyrrolo[3,2-d]pyrimidine-7-carboxylic acid [4-(2-methoxy-acetylamino)-cyclohexyl]-amide] | 0.372 |
| CCOC(=O)N[C@H]1CC[C@H](NC(=O)c2c[nH]c3c(-c4ccc(OC)cc4OCC4CC4)ncnc23)CC1 [Example 54, trans-(4-{[4-(2-Cyclopropylmethoxy-4-methoxy-phenyl)-5H-pyrrolo[3,2-d]pyrimidine-7-carbonyl]-amino}-cyclohexyl)-carbamic acid ethyl ester] | 0.417 |
| COc1ccc(-c2ncnc3c(C(=O)N[C@H]4CC[C@@H](NC(C)=O)CC4)c[nH]c23)c(OCC2CC2)c1 [Example 55, cis-4-(2-Cyclopropylmethoxy-4-methoxy-phenyl)-5H-pyrrolo[3,2-d]pyrimidine-7-carboxylic acid (4-acetylamino-cyclohexyl)-amide] | 0.372 |
| COc1ccc(-c2ncnc3c(C(=O)N[C@H]4CC[C@@H](NC(=O)C5CC5)CC4)c[nH]c23)c(OCC2CC2)c1 [Example 56, cis-4-(2-Cyclopropylmethoxy-4-methoxy-phenyl)-5H-pyrrolo[3,2-d]pyrimidine-7-carboxylic acid [4-(cyclopropanecarbonyl-amino)cyclohexyl]-amide] | 0.282 |
| COCC(=O)N[C@H]1CC[C@@H](NC(=O)c2c[nH]c3c(-c4ccc(OC)cc4OCC4CC4)ncnc23)CC1 [Example 57, cis-4-(2-Cyclopropylmethoxy-4-methoxy-phenyl)-5H-pyrrolo[3,2-d]pyrimidine-7-carboxylic acid [4-(2-methoxy-acetylamino)-cyclohexyl]-amide] | 0.468 |
| CCOC(=O)N[C@H]1CC[C@@H](NC(=O)c2c[nH]c3c(-c4ccc(OC)cc4OCC4CC4)ncnc23)CC1 [Example 58, cis-(4-{[4-(2-Cyclopropylmethoxy-4-methoxy-phenyl)-5H-pyrrolo[3,2-d]pyrimidine-7-carbonyl]-amino}-cyclohexyl)-carbamic acid ethyl ester] | 0.339 |
| COc1ccc(-c2ncnc3c(C(=O)NC4CCN(C(C)=O)CC4)c[nH]c23)c(OCC2CC2)c1 [Example 59, 4-(2-Cyclopropylmethoxy-4-methoxy-phenyl)-5H-pyrrolo[3,2-d]pyrimidine-7-carboxylic acid (1-acetyl-piperidin-4-yl)-amide] | 0.741 |
| COc1ccc(-c2ncnc3c(C(=O)NC4CCN(C(=O)C5CC5)CC4)c[nH]c23)c(OCC2CC2)c1 [Example 60, 4-(2-Cyclopropylmethoxy-4-methoxy-phenyl)-5H-pyrrolo[3,2-d]pyrimidine-7-carboxylic acid [1-(1-cyclopropyl-methanoyl)-piperidin-4-yl]-amide] | 0.263 |
| COCC(=O)N1CCC(NC(=O)c2c[nH]c3c(-c4ccc(OC)cc4OCC4CC4)ncnc23)CC1 [Example 61, 4-(2-Cyclopropylmethoxy-4-methoxy-phenyl)-5H-pyrrolo[3,2-d]pyrimidine-7-carboxylic acid [1-(2-methoxy-ethanoyl)-piperidin-4-yl]amide] | 0.525 |
| CCOC(=O)N1CCC(NC(=O)c2c[nH]c3c(-c4ccc(OC)cc4OCC4CC4)ncnc23)CC1 [Example 62, 4-({1-[4-(2-Cyclopropylmethoxy-4-methoxy-phenyl)-5H-pyrrolo[3,2-d]pyrimidin-7-yl]-methanoyl}-amino)-piperidine-1-carboxylic acid ethyl ester] | 0.309 |
| COc1ccc(OCC2CC2)c(-c2ncnc3c(C(=O)N[C@H]4CC[C@H](NC(C)=O)CC4)c[nH]c23)c1 [Example 63, trans-4-(2-Cyclopropylmethoxy-5-methoxy-phenyl)-5H-pyrrolo[3,2-d]pyrimidine-7-carboxylic acid (4-acetylamino-cyclohexyl)-amide] | 0.912 |
| COc1ccc(OCC2CC2)c(-c2ncnc3c(C(=O)N[C@H]4CC[C@H](NC(=O)C5CC5)CC4)c[nH]c23)c1 [Example 64, trans-4-(2-Cyclopropylmethoxy-5-methoxy-phenyl)-5H-pyrrolo[3,2-d]pyrimidine-7-carboxylic acid [4-(cyclopropanecarbonyl-amino)cyclohexyl]-amide] | 0.603 |
| COCC(=O)N[C@H]1CC[C@H](NC(=O)c2c[nH]c3c(-c4cc(OC)ccc4OCC4CC4)ncnc23)CC1 [Example 65, trans-4-(2-Cyclopropylmethoxy-5-methoxy-phenyl)-5H-pyrrolo[3,2-d]pyrimidine-7-carboxylic acid [4-(2-methoxy-acetylamino)-cyclohexyl]-amide] | 1.15 |
| CCOC(=O)N[C@H]1CC[C@H](NC(=O)c2c[nH]c3c(-c4cc(OC)ccc4OCC4CC4)ncnc23)CC1 [Example 66, trans-(4-{[4-(2-Cyclopropylmethoxy-5-methoxy-phenyl)-5H-pyrrolo[3,2-d]pyrimidine-7-carbonyl]-amino}-cyclohexyl)-carbamic acid ethyl ester] | 0.631 |
| COc1ccc(OCC2CC2)c(-c2ncnc3c(C(=O)N[C@H]4CC[C@@H](NC(C)=O)CC4)c[nH]c23)c1 [Example 67, cis-4-(2-Cyclopropylmethoxy-5-methoxy-phenyl)-5H-pyrrolo[3,2-d]pyrimidine-7-carboxylic acid (4-acetylamino-cyclohexyl)-amide] | 1.38 |
| COc1ccc(OCC2CC2)c(-c2ncnc3c(C(=O)N[C@H]4CC[C@@H](NC(=O)C5CC5)CC4)c[nH]c23)c1 [Example 68, cis-4-(2-Cyclopropylmethoxy-5-methoxy-phenyl)-5H-pyrrolo[3,2-d]pyrimidine-7-carboxylic acid [4-(cyclopropanecarbonyl-amino)cyclohexyl]-amide] | 0.912 |
